The results in this text go back to patent US6890889B1, “Mesotrione formulations” (priority 2000, dated 2005).

This experiment concerns weed. The experiment can be described thus: Experiments varying water quality and application volumes. Particulars: applied at recommended rates with these adjuvant systems. It is filed as in vivo. The source says: Mesotrione, (2-[4-methylsulfonyl-2-nitrobenzoyl]-1,3-cyclohexane dione), is a new broadleaf weed herbicide being developed for post emergence and preemergence use in corn. Adjuvants are highly preferred in order to optimise its post emergence activity. Glasshouse and field experiments have been conducted to evaluate weed and crop response to mesotrione applied post emergence with several adjuvant systems. Rates of mesotrione ranged from 50 to 140 g active ingredient (ai) per […]. Adjuvant systems tested include; • (i) no adjuvant (control), • (ii) crop oil concentrate (COC), • (iii) non-ionic surfactant (NIS), and • (iv) methylated seed oil (MSO), each with and without urea ammonium nitrate (UAN and ammonium sulphate (AMS) fertilizers.
The use of methylated seed oil with mesotrione increases the potential for crop injury.

In the case of `CS(=O)(=O)c1ccc(C(=O)C2C(=O)CCCC2=O)c([N+](=O)[O-])c1` [mesotrione, 2-[4-methylsulfonyl-2-nitrobenzoyl]-1,3-cyclohexane dione], the “impact of varying water quality and application volumes on activity” value is recorded as “little or no impact”.
